Source: patent publication US7981912B2, “Indole acetic acids exhibiting CRTH2 receptor antagonism and uses thereof” (Wyeth LLC, priority 2004, dated 2011)

Target: T1, human CRTH2 (Homo sapiens, UniProt Q9Y5Y4)
T1 sequence (Q9Y5Y4 1-395): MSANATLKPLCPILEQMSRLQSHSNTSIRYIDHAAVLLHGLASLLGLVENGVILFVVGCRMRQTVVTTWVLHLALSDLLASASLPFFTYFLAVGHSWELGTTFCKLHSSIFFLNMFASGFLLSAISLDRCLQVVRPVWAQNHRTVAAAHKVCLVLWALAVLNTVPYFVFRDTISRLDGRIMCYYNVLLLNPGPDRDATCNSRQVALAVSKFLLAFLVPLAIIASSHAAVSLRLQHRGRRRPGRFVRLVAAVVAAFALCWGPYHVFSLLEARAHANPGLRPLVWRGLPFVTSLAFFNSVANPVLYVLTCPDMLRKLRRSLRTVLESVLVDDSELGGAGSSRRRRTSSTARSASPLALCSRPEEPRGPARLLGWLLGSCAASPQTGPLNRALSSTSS
Experiment: CRTH-2 binding assay (scintillation proximity assay, inhibition of 3H-PGD2 binding)
Parameters: expressed in transfected cells; host or cells: HEK 293EBNA-hCRTH2 (membrane preparation)
Conditions: inhibition of 3H-PGD2 (3.6 nM) binding to HEK 293EBNA-hCRTH2 membranes; Ki calculated from IC50
Protocol: A CRTH2 binding assay was developed to measure the ability of compounds to inhibit the binding of PGD2 to human CRTH2 using a scintillation proximity assay.
Membranes containing hCRTH2 receptors were prepared from HEK 293EBNA-hCRTH2 cells (a HEK 293EBNA cell line stably expressing human CRTH2). The cells were grown to confluency, harvested and washed with PBS. The cells were resuspended in 10 mM Hepes pH 7.4, 1 mM EDTA and protease inhibitors and incubated for 30 min on ice. The cells were homogenized and centrifuged for 10 min at 1000×g. The supernate was centrifuged for 30 min at 100,000×g and the membrane pellet was then resusupended in 10 mM Hepes pH 7.4 and 1 mM EDTA. The protein concentration of the membrane preparation was determined by Bradford assay (Bio-Rad).
The ability of compounds to inhibit the interaction of PGD2 to human CRTH2 was determined at seven compound concentrations. Compounds were serially diluted in DMSO then diluted into CRTH2 buffer without glycerol (10 mM Hepes pH 7.4, 1 mM EDTA, 10 mM MnCl2) to six times the final desired concentration. 20 μL of the diluted compounds were transferred into non-surface binding 96 well plates (Corning). Each concentration was done in triplicate. In addition to test compounds, each plate contained 12 control wells. Six of these wells contained 20 μL of CRTH2 buffer without glycerol. These wells were used to measure total binding. Six wells contained 20 μL of CRTH2 buffer without glycerol plus 1.5 mM indomethacin. These wells were used to measure non-specific binding. Next, HEK 293EBNA-hCRTH2 membranes were resuspended in CRTH2 buffer with glycerol (10 mM Hepes pH 7.4, 1 mM EDTA, 10 mM MnCl2, 25% glycerol) so that the final concentration was approximately 20 μg protein/100 μL. Polylysine coated yttrium silicate SPA beads (Amershamn) were added to the membrane mix to a concentration of 0.4 mg/100 μL and finally ^3H-PGD2 was added to the membrane/SPA bead mix to 3.6 nM. 100 μL of the membrane/SPA bead/^3H-PGD2 mix was added to each well of the non-surface binding plates containing the diluted compound plus controls. The plates were incubated for 2 hours at room temperature with shaking and then the plates were counted on a Microbeta scintillation counter (Perkin Elmer) for 1 min per well.
IC50 values were determined from the experimental results by nonlinear regression using Prism 4.0 software. The IC50 values were then used in conjunction with the […] for hCRTH2 and the ^3H-PGD2 concentration used in the experiment to calculate the Ki for each compound.

Row | SMILES | Ki
1 | COc1ccc2c(c1)c(C1c3ccccc3S(=O)(=O)N1CCc1ccccc1)cn2CC(=O)O (stereo not shown) [Example 55, [3-(1,1-Dioxo-2-phenethyl-2,3-dihydro-1H-1λ^6-benzo[d]isothiazol-3-yl)-5-methoxy-indol-1-yl]-acetic acid] | < 10000 nM
2 | COc1ccc2c(c1)c(C1c3ccccc3S(=O)(=O)N1C(C)Cc1ccccc1)cn2CC(=O)O (stereo not shown) [Example 56, {5-Methoxy-3-[2-(1-methyl-2-phenyl-ethyl)-1,1-dioxo-2,3-dihydro-1H-1λ^6-benzo[d]isothiazol-3-yl]-indol-1-yl}-acetic acid] | < 10000 nM
3 | COc1ccc2c(c1)c(C1c3ccccc3S(=O)(=O)N1Cc1ccc(C#N)cc1)cn2CC(=O)O (stereo not shown) [Example 57, {3-[2-(4-Cyano-benzyl)-1,1-dioxo-2,3-dihydro-1H-1λ^6-benzo[d]isothiazol-3-yl]-5-methoxy-indol-1-yl}-acetic acid] | < 10000 nM
4 | C=CCN1C(c2c(C)n(CC(=O)O)c3ccc(Cl)cc23)c2ccccc2S1(=O)=O (stereo not shown) [Example 58, [3-(2-Allyl-1,1-dioxo-2,3-dihydro-1H-1λ^6-benzo[d]isothiazol-3-yl)-5-chloro-2-methyl-indol-1-yl]-acetic acid] | < 1000 nM
5 | CCOC(=O)CN1C(c2c(C)n(CC(=O)O)c3ccc(Cl)cc23)c2ccccc2S1(=O)=O (stereo not shown) [Example 59, [5-Chloro-3-(2-ethoxycarbonylmethyl-1,1-dioxo-2,3-dihydro-1H-1 λ^6-benzo[d]isothiazol-3-yl)-2-methyl-indol-1-yl]-acetic acid] | < 100 nM
6 | Cc1c(C2c3ccccc3S(=O)(=O)N2Cc2ccc(F)cc2)c2cc(Cl)ccc2n1CC(=O)O (stereo not shown) [Example 60, {5-Chloro-3-[2-(4-fluoro-benzyl)-1,1-dioxo-2,3-dihydro-1H-1λ^6-benzo[d]isothiazol-3-yl]-2-methyl-indol-1-yl}-acetic acid] | < 1000 nM
7 | Cc1c(C2c3ccc(F)cc3S(=O)(=O)N2Cc2cccc(F)c2)c2ccccc2n1CC(=O)O (stereo not shown) [Example 63, {3-[6-Fluoro-2-(3-fluoro-benzyl)-1,1-dioxo-2,3-dihydro-1H-1λ^6benzo[d]isothiazol-3-yl]-2-methyl-indol-1-yl}-acetic acid] | < 1000 nM
8 | Cc1c(C2c3ccc(F)cc3S(=O)(=O)N2CCc2ccccc2)c2ccccc2n1CC(=O)O (stereo not shown) [Example 64, [3-(6-Fluoro-1,1-dioxo-2-phenethyl-2,3-dihydro-1H-1λ^6-benzo[d]isothiazol-3-yl)-2-methyl-indol-1-yl]-acetic acid] | < 100 nM
9 | Cc1noc(C)c1CN1C(C)(c2c(C)n(CC(=O)O)c3ccccc23)c2ccccc2S1(=O)=O (stereo not shown) [Example 65, {3-[2-(3,5-Dimethyl-isoxazol-4-ylmethyl)-3-methyl-1,1-dioxo-2,3-dihydro-1H-1λ^6-benzo[d]isothiazol-3-yl]-2-methyl-indol-1-yl}-acetic acid] | < 100 nM
10 | Cc1c(C2(C)c3ccccc3S(=O)(=O)N2Cc2cccc(F)c2)c2ccccc2n1CC(=O)O (stereo not shown) [Example 66, {3-[2-(3-Fluoro-benzyl)-3-methyl-1,1-dioxo-2,3-dihydro-1H-1λ^6-benzo[d]isothiazol-3-yl]-2-methyl-indol-1-yl}-acetic acid] | < 1000 nM
11 | Cc1c(C2(C)c3ccccc3S(=O)(=O)N2CCOc2ccccc2)c2ccccc2n1CC(=O)O (stereo not shown) [Example 67, {2-Methyl-3-[3-methyl-1,1-dioxo-2-(2-phenoxy-ethyl)-2,3-dihydro-1H-1-benzo[d]isothiazol-3-yl]-indol-1-yl}-acetic acid] | < 1000 nM
12 | Cc1noc(C)c1CN1C(=O)c2ccccc2C1c1c(C)n(CC(=O)O)c2ccccc12 (stereo not shown) [Example 68, {3-[2-(3,5-Dimethyl-isoxazol-4-ylmethyl)-3-oxo-2,3-dihydro-1H-isoindol-1-yl]-2-methyl-indol-1-yl}-acetic acid] | < 1000 nM
13 | Cc1noc(C)c1CN1C(c2c(C)n(CC(=O)O)c3ccccc23)CCS1(=O)=O (stereo not shown) [Example 69, {3-[2-(3,5-Dimethyl-isoxazol-4-ylmethyl)-1,1-dioxo-λ^6-isothiazolidin-3-yl]-2-methyl-indol-1-yl}-acetic acid] | < 100 nM
14 | Cc1c(C2=NN(Cc3ccccc3)C(=O)C3CC=CCC23)c2ccccc2n1CC(=O)O (stereo not shown) [Example 71, [3-(3-Benzyl-4-oxo-3,4,4a,5,8,8a-hexahydro-phthalazin-1-yl)-2-methyl-indol-1-yl]-acetic acid] | < 1000 nM
15 | Cc1c(C2=NN(Cc3ccccc3)C(=O)C(C)(C)C2)c2cc(Cl)ccc2n1CC(=O)O [Example 73, [3-(1-Benzyl-5,5-dimethyl-6-oxo-1,4,5,6-tetrahydro-pyridazin-3-yl)-5-chloro-2-methyl-indol-1-yl]-acetic acid] | < 100 nM
16 | Cc1c(C2c3ccccc3S(=O)(=O)N2c2ccccc2)c2ccccc2n1CC(=O)O (stereo not shown) [Example 74, [3-(1,1-Dioxo-2-phenyl-2,3-dihydro-1H-1λ^6-benzo[d]isothiazol-3-yl)-2-methyl-indol-1-yl]-acetic acid] | < 1000 nM
17 | Cc1c(C2=NN(Cc3ccccc3)S(=O)(=O)c3ccccc32)c2cc(F)ccc2n1CC(=O)O [Example 75, [3-(2-Benzyl-1,1-dioxo-1,2-dihydro-1λ^6-benzo[e][1,2,3]thiadiazin-4-yl)-5-fluoro-2-methyl-indol-1-yl]-acetic acid] | < 1000 nM

Further lines, results first:

Row | Ki | SMILES
18 | < 100 nM | Cc1c(C2=NN(Cc3ccccc3Cl)S(=O)(=O)c3ccccc32)c2cc(F)ccc2n1CC(=O)O [Example 76, {3-[2-(2-Chloro-benzyl)-1,1-dioxo-1,2-dihydro-1λ^6-benzo[e][1,2,3]thiadiazin-4-yl]-5-fluoro-2-methyl-indol-1-yl}-acetic acid]
19 | < 1000 nM | Cc1c(C2=NN(Cc3cccc(Cl)c3)S(=O)(=O)c3ccccc32)c2cc(F)ccc2n1CC(=O)O [Example 77, {3-[2-(3-Chloro-benzyl)-1,1-dioxo-1,2-dihydro-1λ^6-benzo[e][1,2,3]thiadiazrn-4-yl]-5-fluoro-2-methyl-indol-1-yl}-acetic acid]
20 | < 1000 nM | Cc1c(C2=NN(Cc3ccc(Cl)cc3)S(=O)(=O)c3ccccc32)c2cc(F)ccc2n1CC(=O)O [Example 78, {3-[2-(4-Chloro-benzyl)-1,1-dioxo-1,2-dihydro-1λ^6-benzo[e][1,2,3]thiadiazin-4-yl]-5-fluoro-2-methyl-indol-1-yl}-acetic acid]
21 | < 1000 nM | COc1cccc(CN2N=C(c3c(C)n(CC(=O)O)c4ccc(F)cc34)c3ccccc3S2(=O)=O)c1 [Example 79, {3-[2-(3-Methoxy-benzyl)-1,1-dioxo-1,2-dihydro-1λ^6-benzo[e][1,2,3]thiadiazin-4-yl]-5-fluoro-2-methyl-indol-1-yl}-acetic acid]
22 | < 100 nM | COc1ccc(CN2N=C(c3c(C)n(CC(=O)O)c4ccc(F)cc34)c3ccccc3S2(=O)=O)cc1 [Example 80, {3-[2-(4-Methoxy-benzyl)-1,1-dioxo-1,2-dihydro-1λ^6-benzo[e][1,2,3]thiadiazin-4-yl]-5-fluoro-2-methyl-indol-1-yl}-acetic acid]
23 | < 100 nM | Cc1c(C2=NN(Cc3ccccc3F)S(=O)(=O)c3ccccc32)c2cc(F)ccc2n1CC(=O)O [Example 81, {3-[2-(2-Fluoro-benzyl)-1,1-dioxo-1,2-dihydro-1λ^6-benzo[e][1,2,3]thiadiazin-4-yl]-5-fluoro-2-methyl-indol-1-yl}-acetic acid]
24 | < 100 nM | Cc1c(C2=NN(Cc3cccc(F)c3)S(=O)(=O)c3ccccc32)c2cc(F)ccc2n1CC(=O)O [Example 82, {3-[2-(3-Fluoro-benzyl)-1,1-dioxo-1,2-dihydro-1λ^6-benzo[e][1,2,3]thiadiazin-4-yl]-5-fluoro-2-methyl-indol-1-yl}-acetic acid]
25 | < 1000 nM | Cc1c(C2=NN(Cc3ccc(OC(F)(F)F)cc3)S(=O)(=O)c3ccccc32)c2cc(F)ccc2n1CC(=O)O [Example 84, {3-[2-(4-Trifluoromethoxy-benzyl)-1,1-dioxo-1,2-dihydro-1λ^6-benzo[e][1,2,3]thiadiazin-4-yl]-5-fluoro-2-methyl-indol-1-yl}-acetic acid]
